This note sets out measurements from US12590091B2, “1H-pyrrolo[3,2-C]pyridine and 1H-pyrrolo[2,3-C]pyridine derivatives as TLR9 inhibitors for the treatment of fibrosis” (BRISTOL-MYERS SQUIBB COMPANY, priority 2020, dated 2026).

This test has as its target T1, human TLR7 (Homo sapiens, UniProt Q9NYK1).
T1 construct: host or cells: HEK-Blue cells
T1 sequence (Q9NYK1 27-1049): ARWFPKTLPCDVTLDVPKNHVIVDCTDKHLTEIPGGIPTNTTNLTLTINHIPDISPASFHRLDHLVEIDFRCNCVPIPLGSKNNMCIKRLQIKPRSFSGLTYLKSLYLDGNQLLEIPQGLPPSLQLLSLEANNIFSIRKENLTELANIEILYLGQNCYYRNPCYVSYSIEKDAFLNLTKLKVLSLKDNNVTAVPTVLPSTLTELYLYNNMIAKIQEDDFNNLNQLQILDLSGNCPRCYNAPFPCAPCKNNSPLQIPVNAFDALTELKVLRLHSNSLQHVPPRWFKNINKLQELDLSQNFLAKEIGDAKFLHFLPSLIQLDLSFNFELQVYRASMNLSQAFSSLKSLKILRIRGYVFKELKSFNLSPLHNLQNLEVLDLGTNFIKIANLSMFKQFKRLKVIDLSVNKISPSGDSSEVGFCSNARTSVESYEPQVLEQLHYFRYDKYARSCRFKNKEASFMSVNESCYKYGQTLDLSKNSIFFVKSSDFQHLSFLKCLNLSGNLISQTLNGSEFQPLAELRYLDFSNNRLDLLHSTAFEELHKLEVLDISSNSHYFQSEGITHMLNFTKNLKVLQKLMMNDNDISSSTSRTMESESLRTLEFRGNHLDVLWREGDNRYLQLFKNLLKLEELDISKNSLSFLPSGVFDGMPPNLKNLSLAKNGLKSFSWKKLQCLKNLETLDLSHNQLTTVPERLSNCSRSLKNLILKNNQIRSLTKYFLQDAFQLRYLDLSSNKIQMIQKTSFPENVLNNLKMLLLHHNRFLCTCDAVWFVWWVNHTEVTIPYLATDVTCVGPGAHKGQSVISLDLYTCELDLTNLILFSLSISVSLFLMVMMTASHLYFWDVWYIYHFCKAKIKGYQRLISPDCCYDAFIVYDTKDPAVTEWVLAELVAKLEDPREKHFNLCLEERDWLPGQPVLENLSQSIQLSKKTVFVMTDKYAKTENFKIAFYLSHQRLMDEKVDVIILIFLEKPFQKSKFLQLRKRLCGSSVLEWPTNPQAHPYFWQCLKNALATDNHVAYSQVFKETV
In words: TLR7 inhibition reporter assay (HEK-Blue cells, SEAP reporter). It is filed as cell-based. The settings on record: HEK-Blue cells overexpressing human TLR7, stimulated with gardiquimod 7.5 μM, 22 hour incubation. The method in brief: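 HEK-Blue cells overexpressing human TLR7, TLR8 or TLR9 carry a SEAP reporter driven by NF-κB/AP-1 sites. Compounds (0.05 nM–50 μM) were preincubated 30 min at room temperature, then cells were stimulated with gardiquimod 7.5 μM (TLR7), R848 15.9 μM (TLR8) or ODN2006 5 nM (TLR9) for 22 h at 37 °C.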
(In a reporter assay the amount or activity of a reporter protein is the signal.)

Turning to `CCOC(=O)N1CCC(N2CCC(c3cc4c(cn3)cc(-c3ccc(OC)c(OC)c3)n4C)CC2)CC1` [Example 7, Ethyl 4-(2-(3,4-dimethoxyphenyl)-1-methyl-1H-pyrrolo[3,2-c]pyridin-6-yl)-[1,4′-bipiperidine]-1′-carboxylate], the IC50 was above 50 µM.
Molecule `COc1ccc(-c2cc3cnc(C4CCN(Cc5ccc(C)nc5)CC4)cc3n2C)cc1OC` [Example 8, 2-(3,4-Dimethoxyphenyl)-1-methyl-6-(1-((6-methylpyridin-3-yl)methyl)piperidin-4-yl)-1H-pyrrolo[3,2-c]pyridine] showed an IC50 of 6.8 µM.
In turn, `Cc1nc(-c2cc(F)c(N3CCN(C4CCOCC4)CC3)c(F)c2)cc2c1cc(-c1ccc(S(C)(=O)=O)cc1)n2C` [Example 89, 6-(3,5-difluoro-4-(4-(tetrahydro-2H-pyran-4-yl)piperazin-1-yl)phenyl)-1,4-dimethyl-2-(4-(methylsulfonyl)phenyl)-1H-pyrrolo[3,2-c]pyridine] had a half-maximal inhibitory concentration (IC50) above 50 µM.
The value for `Cc1nc(-c2ccc(C3(O)CCN(CC(C)C)CC3)c(F)c2)cc2c1cc(-c1ccc(S(C)(=O)=O)cc1)n2C` [Example 90, 4-(4-(1,4-dimethyl-2-(4-(methylsulfonyl)phenyl)-1H-pyrrolo[3,2-c]pyridin-6-yl)-2-fluorophenyl)-1-isobutylpiperidin-4-ol] was 7.8 µM.
Take `Cc1nc(-c2ccc(C3(O)CC4CCC(C3)N4CC(C)C)c(F)c2)cc2c1cc(-c1ccc(S(C)(=O)=O)cc1)n2C` [Example 91, (1R,3r,5S)-3-(4-(1,4-dimethyl-2-(4-(methylsulfonyl)phenyl)-1H-pyrrolo[3,2-c]pyridin-6-yl)-2-fluorophenyl)-8-isobutyl-8-azabicyclo[3.2.1]octan-3-ol]: half-maximal inhibition (IC50) was put at 30.8 µM.
Turning to `COCCN1CCC(O)(c2ccc(-c3cc4c(cc(-c5ccc(S(C)(=O)=O)cc5)n4C)c(C)n3)cc2F)CC1` [Example 92, 4-(4-(1,4-dimethyl-2-(4-(methylsulfonyl)phenyl)-1H-pyrrolo[3,2-c]pyridin-6-yl)-2-fluorophenyl)-1-(2-methoxyethyl)piperidin-4-ol], the IC50 amounted to 7 µM. This IC50 lies about 4.4-fold lower than the previous one.
In the case of `Cc1nc(-c2ccc(C3(O)CCN(C4CC4)CC3)c(F)c2)cc2c1cc(-c1ccc(S(C)(=O)=O)cc1)n2C` [Example 93, 1-cyclopropyl-4-(4-(1,4-dimethyl-2-(4-(methylsulfonyl)phenyl)-1H-pyrrolo[3,2-c]pyridin-6-yl)-2-fluorophenyl)piperidin-4-ol], inhibition was half-maximal at 9.9 µM (IC50).
In turn, `Cc1nc(-c2cc(F)c(C3(O)CCN(CC(C)C)CC3)cc2F)cc2c1cc(-c1ccc(S(C)(=O)=O)cc1)n2C` [Example 94, 4-(4-(1,4-dimethyl-2-(4-(methylsulfonyl)phenyl)-1H-pyrrolo[3,2-c]pyridin-6-yl)-2,5-difluorophenyl)-1-isobutylpiperidin-4-ol] came in with an IC50 of 3.6 µM.
Molecule `COCCN1CCC(O)(c2cc(F)c(-c3cc4c(cc(-c5ccc(S(C)(=O)=O)cc5)n4C)c(C)n3)cc2F)CC1` [Example 95, 4-(4-(1,4-dimethyl-2-(4-(methylsulfonyl)phenyl)-1H-pyrrolo[3,2-c]pyridin-6-yl)-2,5-difluorophenyl)-1-(2-methoxyethyl)piperidin-4-ol] registered an IC50 of 3.2 µM. The IC50 values of the last two molecules are within 1.5-fold of each other.
Regarding `Cc1nc(-c2cc(F)c(C3(O)CCN(C4CC4)CC3)cc2F)cc2c1cc(-c1ccc(S(C)(=O)=O)cc1)n2C` [Example 96, 1-cyclopropyl-4-(4-(1,4-dimethyl-2-(4-(methylsulfonyl)phenyl)-1H-pyrrolo[3,2-c]pyridin-6-yl)-2,5-difluorophenyl)piperidin-4-ol], half-maximal inhibition (IC50) was put at 2.9 µM.
Turning to `Cc1nc(-c2cc(F)c(N3CCN4CCCC4C3)cc2F)cc2c1cc(-c1ccc(S(C)(=O)=O)cc1)n2C` (stereo not drawn) [Example 97, 6-(2,5-difluoro-4-(hexahydropyrrolo[1,2-a]pyrazin-2(1H)-yl)phenyl)-1,4-dimethyl-2-(4-(methylsulfonyl)phenyl)-1H-pyrrolo[3,2-c]pyridine], half-maximal inhibition (IC50) required 3.8 µM.
`Cc1nc(-c2cc(F)c(N3CCN4CCCC4C3)c(F)c2)cc2c1cc(-c1ccc(S(C)(=O)=O)cc1)n2C` (stereo not drawn) [Example 98, 6-(3,5-difluoro-4-(hexahydropyrrolo[1,2-a]pyrazin-2(1H)-yl)phenyl)-1,4-dimethyl-2-(4-(methylsulfonyl)phenyl)-1H-pyrrolo[3,2-c]pyridine] registered an IC50 of 0.7 µM.

Usually IC50 stands for the point on the concentration scale where inhibition reaches its midpoint. A high value points to weaker potency in that assay.
